The assay has as its target Integrin alpha-IIb/beta-3 (Homo sapiens, UniProt P05106+P08514). Put plainly: Inhibition of platelet aggregation in vitro using fibrinogen binding assay.

pIC50: −log10 of the molar value.

Chain of Integrin alpha-IIb/beta-3 (P05106 27-788 limits assumed): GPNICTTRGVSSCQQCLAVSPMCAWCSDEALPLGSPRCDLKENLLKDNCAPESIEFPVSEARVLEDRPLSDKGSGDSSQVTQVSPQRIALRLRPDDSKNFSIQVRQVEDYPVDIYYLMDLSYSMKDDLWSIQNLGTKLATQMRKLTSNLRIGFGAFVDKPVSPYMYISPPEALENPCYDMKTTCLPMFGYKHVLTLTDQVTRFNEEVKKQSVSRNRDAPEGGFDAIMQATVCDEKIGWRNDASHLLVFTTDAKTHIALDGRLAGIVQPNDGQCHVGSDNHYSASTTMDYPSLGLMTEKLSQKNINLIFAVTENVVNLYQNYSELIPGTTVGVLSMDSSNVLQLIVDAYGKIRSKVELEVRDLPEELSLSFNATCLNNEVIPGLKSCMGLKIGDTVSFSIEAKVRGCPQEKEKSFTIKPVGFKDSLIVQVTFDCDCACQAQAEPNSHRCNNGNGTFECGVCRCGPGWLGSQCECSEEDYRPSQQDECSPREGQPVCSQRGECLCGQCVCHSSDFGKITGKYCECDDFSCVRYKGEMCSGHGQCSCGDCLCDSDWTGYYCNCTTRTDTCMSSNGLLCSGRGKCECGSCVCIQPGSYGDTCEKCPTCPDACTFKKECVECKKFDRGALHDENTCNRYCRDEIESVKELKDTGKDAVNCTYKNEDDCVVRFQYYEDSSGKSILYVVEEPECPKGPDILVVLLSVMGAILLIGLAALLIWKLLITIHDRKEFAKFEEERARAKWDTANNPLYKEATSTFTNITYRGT
Chain of Integrin alpha-IIb/beta-3 (P08514 32-887 limits assumed): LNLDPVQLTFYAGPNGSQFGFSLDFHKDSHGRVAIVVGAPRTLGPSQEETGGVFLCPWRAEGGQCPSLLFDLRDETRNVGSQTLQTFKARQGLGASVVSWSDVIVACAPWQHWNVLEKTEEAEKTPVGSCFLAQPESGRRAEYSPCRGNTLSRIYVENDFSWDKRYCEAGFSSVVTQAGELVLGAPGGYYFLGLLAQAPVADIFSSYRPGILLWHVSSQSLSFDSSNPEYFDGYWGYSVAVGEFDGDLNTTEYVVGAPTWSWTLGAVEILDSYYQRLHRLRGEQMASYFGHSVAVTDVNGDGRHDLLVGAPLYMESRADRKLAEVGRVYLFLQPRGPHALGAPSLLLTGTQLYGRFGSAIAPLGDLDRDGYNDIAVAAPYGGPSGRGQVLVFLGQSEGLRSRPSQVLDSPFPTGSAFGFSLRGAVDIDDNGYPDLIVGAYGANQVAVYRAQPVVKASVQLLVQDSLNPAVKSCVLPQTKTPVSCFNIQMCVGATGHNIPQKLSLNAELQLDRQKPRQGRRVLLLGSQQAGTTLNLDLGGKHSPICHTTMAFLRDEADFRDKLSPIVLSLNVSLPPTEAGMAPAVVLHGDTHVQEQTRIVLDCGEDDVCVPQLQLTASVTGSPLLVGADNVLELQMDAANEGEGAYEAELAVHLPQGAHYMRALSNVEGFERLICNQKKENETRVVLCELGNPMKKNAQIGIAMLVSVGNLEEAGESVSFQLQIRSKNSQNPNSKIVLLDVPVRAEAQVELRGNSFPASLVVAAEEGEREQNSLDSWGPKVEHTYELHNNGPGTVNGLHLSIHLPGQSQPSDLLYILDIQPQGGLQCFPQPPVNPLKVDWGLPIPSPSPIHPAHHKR
Chain of Integrin alpha-IIb/beta-3 (P08514 891-1039 limits assumed): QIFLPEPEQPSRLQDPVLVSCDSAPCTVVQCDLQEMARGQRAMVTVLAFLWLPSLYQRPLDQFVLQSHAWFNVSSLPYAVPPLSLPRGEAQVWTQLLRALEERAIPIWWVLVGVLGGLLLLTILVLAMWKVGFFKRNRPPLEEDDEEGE

The molecule `CC(C)[C@H]1NC(=O)c2cccc(c2F)CNC(=O)[C@H](CC(=O)O)NC(=O)CNC(=O)[C@H](CCCN=C(N)N)N(C)C1=O` had a pIC50 of 8.40.

Values taken from ChEMBL document CHEMBL1128818, “Synthesis and antiplatelet activity of DMP 757 analogs” (Bioorg Med Chem Lett, 1995).
